Data published in patent US20070054916A1, “Aryl nitrogen-containing bicyclic compounds and methods of use” (Amgen Inc., priority 2004, published 2007).

System: production of TNF by monocytes activated with bacterial lipopolysaccharide (LPS)
Assay: Lipopolysaccharide-activated monocyte TNF production assay
Format: cell-based
Conditions: Homo sapiens, read-out: IC50 values in the monocyte assay (LPS induced TNF release)
Description: Lipopolysaccharide-Activated Monocyte TNF Production Assay
Test compounds were evaluated in vitro for the ability to inhibit the production of TNF by monocytes activated with bacterial lipopolysaccharide (LPS). Fresh residual source leukocytes (a byproduct of plateletpheresis) were obtained from a local blood bank, and peripheral blood mononuclear cells (PBMCs) were isolated by density gradient centrifugation on Ficol-Paque Plus (Pharmacia). PBMCs were suspended at 2×10^6/ml in DMEM supplemented to contain 2% FCS, 10 mM, 0.3 mg/ml […], 100 U/ml penicillin G and […] streptomycin sulfate (complete media). Cells were plated into Falcon flat bottom, 96 well culture plates (200 μl/well) and cultured overnight at 37° C. and 6% CO2. Non-adherent cells were removed by washing with 200 μl/well of fresh medium. Wells containing adherent cells (˜70% monocytes) were replenished with 100 μl of fresh medium.
Preparation of Test Compound Stock Solutions
Test compounds were dissolved in […]. Compound stock solutions were prepared to an initial concentration of […]. Stocks were diluted initially to 20-200 μM in complete media. Nine two-fold serial dilutions of each compound were then prepared in complete medium.
Treatment of Cells with Test Compounds and Activation of TNF Production with Lipopolysaccharide
One hundred microliters of each test compound dilution were added to microtiter wells containing adherent monocytes and 100 μl complete medium. Monocytes were cultured with test compounds for 60 min at which time 25 μl of complete medium containing 30 ng/ml lipopolysaccharide from E. coli K532 were added to each well. Cells were cultured an additional 4 hrs. Culture supernatants were then removed and TNF presence in the supernatants was quantified using an ELISA.
Flat bottom, 96 well Corning High Binding ELISA plates were coated overnight (4° C.) with 150 μL/well of 3 μg/ml murine anti-human TNF-α MAb (R&D Systems #MAB210). Wells were then blocked for 1 hr at room temperature with 200 μL/well of CaCl2-free ELISA buffer supplemented to contain 20 mg/ml BSA (standard ELISA buffer: […], 150 mM NaCl, 2 mM CaCl2, 0.15 mM thimerosal, pH 7.4). Plates were washed and replenished with 100 μl of test supernatants (diluted 1:3) or standards. Standards consisted of eleven 1.5-fold serial dilutions from a stock of 1 ng/ml recombinant human TNF (R&D Systems). Plates were incubated at room temperature for 1 hr on orbital shaker (300 rpm), washed and replenished with 100 μl/well of 0.5 ug/ml goat anti-human TNF-α (R&D systems #AB-210-NA) biotinylated at a 4:1 ratio. Plates were incubated for 40 min, washed and replenished with 100 μl/well of alkaline phosphatase-conjugated streptavidin (Jackson ImmunoResearch #016-050-084) at 0.02 ug/ml. Plates were incubated 30 min, washed and replenished with 200 μl/well of 1 mg/ml of p-nitrophenyl phosphate. After 30 min, plates were read at 405 nm on a Vmax plate reader.
Standard curve data were fit to a second order polynomial and unknown TNF-α concentrations determined from their OD by solving this equation for concentration. TNF concentrations were then plotted vs. test compound concentration using a second order polynomial. This equation was then used to calculate the concentration of test compounds causing a 50% reduction in TNF production.

SMILES	IC50 [µM]
Cc1cc(NC(=O)c2ccc(C)c(-c3ccc4nc(N)ncc4c3)c2)c(N(C)CCCN(C)C)cc1C [Example 116, 3-(2-amino-6-quinazolinyl)-N-(2-((3-(dimethylamino)propyl)(methyl)amino)-4,5-dimethylphenyl)-4-methylbenzamide]	≤ 25
Cc1ccc(C(=O)Nc2c(N(C)CCCN(C)C)ccc(C(F)(F)F)c2C)cc1-c1ccc2nc(N)ncc2c1 [Example 117, 3-(2-amino-6-quinazolinyl)-N-(6-((3-(dimethylamino)propyl)(methyl)amino)-2-methyl-3-(trifluoromethyl)phenyl)-4-methylbenzamide]	≤ 25
Cc1ccc(C(=O)Nc2ccc(C(F)(F)F)cc2N(C)CCCN(C)C)cc1-c1ccc2nc(N)ncc2c1 [Example 118, 3-(2-amino-6-quinazolinyl)-N-(2-((3-(dimethylamino)propyl)(methyl)amino)-4-(trifluoromethyl)phenyl)-4-methylbenzamide]	≤ 25
COc1ccc(NC(=O)c2ccc(C)c(-c3ccc4nc(N)ncc4c3)c2)cc1C(F)(F)F [Example 119, 3-(2-amino-6-quinazolinyl)-4-methyl-N-(4-(methyloxy)-3-(trifluoromethyl)phenyl)benzamide]	≤ 25
Cc1ccc(C(=O)Nc2cccc(C(F)(F)F)c2)cc1-c1ccc2nc(N)ncc2c1 [Example 120, 3-(2-amino-6-quinazolinyl)-4-methyl-N-(3-(trifluoromethyl)phenyl)benzamide]	≤ 25
Cc1ccc(C(=O)N[C@@H](C)c2nccs2)cc1-c1ccc2nc(N)ncc2c1 [Example 121, 3-(2-amino-6-quinazolinyl)-4-methyl-N-((1S)-1-(1,3-thiazol-2-yl)ethyl)benzamide]	≤ 25
CCN(CC)CCCOc1ccc(NC(=O)c2ccc(C)c(-c3ccc4nc(N)ncc4c3)c2)cc1C(F)(F)F [Example 122, 3-(2-amino-6-quinazolinyl)-N-(4-((3-(diethylamino)propyl)oxy)-3-(trifluoromethyl)phenyl)-4-methylbenzamide]	≤ 25
Cc1ccc(C(=O)Nc2ccc(OC3CCN(C)CC3)c(C(F)(F)F)c2)cc1-c1ccc2nc(N)ncc2c1 [Example 123, 3-(2-amino-6-quinazolinyl)-4-methyl-N-(4-((1-methyl-4-piperidinyl)oxy)-3-(trifluoromethyl)phenyl)benzamide]	≤ 25
Cc1ccc(C(=O)Nc2ccc(F)c(C(F)(F)F)c2)cc1-c1ccc2nc(N)ncc2c1 [Example 124, 3-(2-amino-6-quinazolinyl)-N-(4-fluoro-3-(trifluoromethyl)phenyl)-4-methylbenzamide]	≤ 25
Cc1ccc(C(=O)Nc2ccc(C#N)c(C(F)(F)F)c2)cc1-c1ccc2nc(N)ncc2c1 [Example 125, 3-(2-amino-6-quinazolinyl)-N-(4-cyano-3-(trifluoromethyl)phenyl)-4-methylbenzamide]	≤ 25
Cc1cc(F)c(C(=O)Nc2cccc(C(F)(F)F)c2)cc1-c1ccc2nc(N)ncc2c1 [Example 126, 5-(2-amino-6-quinazolinyl)-2-fluoro-4-methyl-N-(3-(trifluoromethyl)phenyl)benzamide]	≤ 25
Cc1ccc(C(=O)Nc2ccc(C(C)(C)C)cc2)cc1-c1ccc2nc(N)ncc2c1 [Example 128, 3-(2-amino-6-quinazolinyl)-N-(4-(1,1-dimethylethyl)phenyl)-4-methylbenzamide]	≤ 25
Nc1ncc2cc(-c3cc(C(=O)Nc4cccc(C(F)(F)F)c4F)ccc3F)ccc2n1 [Example 136, 3-(2-amino-6-quinazolinyl)-4-fluoro-N-(2-fluoro-3-(trifluoromethyl)phenyl)benzamide]	≤ 25
Nc1ncc2cc(-c3cc(C(=O)Nc4cccc(C(F)(F)F)c4)ccc3F)ccc2n1 [Example 137, 3-(2-amino-6-quinazolinyl)-4-fluoro-N-(3 (trifluoromethyl)phenyl)benzamide]	≤ 25
COc1ccc(C(C)(C)C)cc1NC(=O)c1ccc(F)c(-c2ccc3nc(N)ncc3c2)c1 [Example 138, 3-(2-amino-6-quinazolinyl)-N-(5-(1,1-dimethylethyl)-2-(methyloxy)phenyl)-4-fluorobenzamide]	≤ 25
COc1ccc(C(C)(C)C)cc1NC(=O)c1ccc(Cl)c(-c2ccc3nc(N)ncc3c2)c1 [Example 139, 3-(2-amino-6-quinazolinyl)-4-chloro-N-(5-(1,1-dimethylethyl)-2-(methyloxy)phenyl)benzamide]	≤ 25
Nc1ncc2cc(-c3cc(C(=O)Nc4cccc(C(F)(F)F)c4F)ccc3Cl)ccc2n1 [Example 140, 3-(2-amino-6-quinazolinyl)-4-chloro-N-(2-fluoro-3-(trifluoromethyl)phenyl)benzamide]	≤ 25
Cc1c(NC(=O)c2ccc(Cl)c(-c3ccc4nc(N)ncc4c3)c2)cccc1C(F)(F)F [Example 141, 3-(2-amino-6-quinazolinyl)-4-chloro-N-(2-methyl-3-(trifluoromethyl)phenyl)benzamide]	≤ 25
Nc1ncc2cc(-c3cc(C(=O)Nc4cccc(OC(F)(F)F)c4)ccc3Cl)ccc2n1 [Example 142, 3-(2-amino-6-quinazolinyl)-4-chloro-N-(3-((trifluoromethyl)oxy)phenyl)benzamide]	≤ 25
COc1ccc(Cl)cc1NC(=O)c1ccc(C)c(-c2ccc3nc(N)ncc3c2)c1 [Example 143, 3-(2-amino-6-quinazolinyl)-N-(5-chloro-2-(methyloxy)phenyl)-4-methylbenzamide]	≤ 25
Cc1ccc(C(=O)Nc2cc(C(F)(F)F)ccc2OCCCN(C)C)cc1-c1ccc2nc(N)ncc2c1 [Example 144, 3-(2-amino-6-quinazolinyl)-N-(2-((3-(dimethylamino)propyl)oxy)-5-(trifluoromethyl)phenyl)-4-methylbenzamide]	≤ 25
COc1ccc(C(=O)Nc2ccccc2)cc1NC(=O)c1ccc(C)c(-c2ccc3nc(N)ncc3c2)c1 [Example 145, 3-(2-amino-6-quinazolinyl)-4-methyl-N-(2-(methyloxy)-5-((phenylamino)carbonyl)phenyl) benzamide]	≤ 25
CSc1ccc(C(F)(F)F)cc1NC(=O)c1ccc(C)c(-c2ccc3nc(N)ncc3c2)c1 [Example 146, 3-(2-amino-6-quinazolinyl)-4-methyl-N-(2-(methylsulfanyl)-5-(trifluoromethyl)phenyl)benzamide]	≤ 25
Cc1ccc(F)c(NC(=O)c2ccc(C)c(-c3ccc4nc(N)ncc4c3)c2)c1 [Example 147, 3-(2-amino-6-quinazolinyl)-N-(2-fluoro-5-methylphenyl)-4-methylbenzamide]	≤ 25
COc1ccc(OC)c(NC(=O)c2ccc(C)c(-c3ccc4nc(N)ncc4c3)c2)c1 [Example 148, 3-(2-amino-6-quinazolinyl)-N-(2,5-bis(methyloxy)phenyl)-4-methylbenzamide]	≤ 25
Nc1ncc2cc(-c3cc(C(=O)Nc4cc(C(F)(F)F)ccc4N4CCCC4)ccc3Cl)ccc2n1 [Example 155, 3-(2-amino-6-quinazolinyl)-4-chloro-N-(2-(1-pyrrolidinyl)-5-(trifluoromethyl)phenyl)benzamide]	≤ 25
Nc1ncc2cc(-c3cc(C(=O)Nc4cc(C(F)(F)F)ccc4N4CCCCC4)ccc3Cl)ccc2n1 [Example 156, 3-(2-amino-6-quinazolinyl)-4-chloro-N-(2-(1-piperidinyl)-5-(trifluoromethyl)phenyl)benzamide]	≤ 25
